Assay results reported in publication PMC6364417, “Kinase inhibitor library screening identifies synergistic drug combinations effective in sensitive and resistant melanoma cells” (Journal of Experimental & Clinical Cancer Research : CR, 2019).

Columns and labels:
Experiment in all cases: Kinase inhibitor library screening, PrestoBlue cell viability, 1 or 10 μM, 72 h
[1] = test system: A375-XP cells (Vemurafenib-resistant); conditions: for viability at 1 µM / viability at 10 µM: Homo sapiens, A-375, 72 h; for viability at 1 µM: read-out: cell viability, A375 XP, 1μΜ; for viability at 10 µM: read-out: cell viability, A375 XP, 10μΜ; for cell viability, A375 XP, 1μΜ / cell viability, A375 XP, 10μΜ: in %
[2] = test system: IGR37-XP cells (Vemurafenib-resistant); conditions: for viability at 1 µM / viability at 10 µM: Homo sapiens, IGR-37, 72 h; for viability at 1 µM: read-out: cell viability, IGR37 XP, 1μΜ; for viability at 10 µM: read-out: cell viability, IGR37 XP, 10μΜ
[3] = test system: IGR37-GP cells (Dabrafenib-resistant); conditions: for viability at 1 µM / viability at 10 µM: Homo sapiens, IGR-37, 72 h; for viability at 1 µM: read-out: cell viability, IGR37 GP, 1μΜ; for viability at 10 µM: read-out: cell viability, IGR37 GP, 10μΜ
[4] = test system: 501Mel-XP cells (Vemurafenib-resistant); conditions: 72 h; for viability at 1 µM / viability at 10 µM: Homo sapiens; for viability at 1 µM: read-out: cell viability, 501Mel XP, 1μΜ; for viability at 10 µM: read-out: cell viability, 501Mel XP, 10μΜ
[5] = test system: 501Mel-GP cells (Dabrafenib-resistant); conditions: 72 h; for viability at 1 µM / viability at 10 µM: Homo sapiens; for viability at 1 µM: read-out: cell viability, 501Mel GP, 1μΜ; for viability at 10 µM: read-out: cell viability, 501Mel GP, 10μΜ
[6] = test system: A375 cells (parental); conditions: for viability at 1 µM / viability at 10 µM: Homo sapiens, A-375, 72 h; for viability at 1 µM: read-out: cell viability, A375 Parental, 1μΜ; for viability at 10 µM: read-out: cell viability, A375 Parental, 10μΜ; for cell viability, A375 Parental, 1μΜ / cell viability, A375 Parental, 10μΜ: in %
[7] = test system: IGR37 cells (parental); conditions: for viability at 1 µM / viability at 10 µM: Homo sapiens, IGR-37, 72 h; for viability at 1 µM: read-out: cell viability, IGR37 Parental, 1μΜ; for viability at 10 µM: read-out: cell viability, IGR37 Parental, 10μΜ
[8] = test system: 501Mel cells (parental); conditions: 72 h; for viability at 1 µM / viability at 10 µM: Homo sapiens; for viability at 1 µM: read-out: cell viability, 501Mel Parental, 1μΜ; for viability at 10 µM: read-out: cell viability, 501Mel Parental, 10μΜ
Method in brief: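 Treatment: 72 h with inhibitor. Detection: PrestoBlue, plate reader. Output: viability as % untreated control. Replicates: duplicate minimum. Lines: parental plus Vemurafenib- or Dabrafenib-resistant derivatives.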

[9] = test system: A375-GP cells (Dabrafenib-resistant); conditions: for viability at 1 µM / viability at 10 µM: Homo sapiens, A-375, 72 h; for viability at 1 µM: read-out: cell viability, A375 GP, 1μΜ; for viability at 10 µM: read-out: cell viability, A375 GP, 10μΜ; for cell viability, A375 GP, 1μΜ / cell viability, A375 GP, 10μΜ: in %
[10] = IGR37 Parental, 1μΜ, 72 h, in %
[11] = IGR37 Parental, 10μΜ, 72 h, in %

COCC(=O)NC/C=C/c1ccc2ncnc(Nc3ccc(Oc4ccc(C)nc4)c(C)c3)c2c1 [CP-724714]
viability at 1 µM [1]: 109%
viability at 10 µM [1]: 103%
viability at 1 µM [2]: 89.5%
viability at 10 µM [2]: 52.3%
viability at 1 µM [3]: 91.8%
viability at 10 µM [3]: 86.1%
viability at 1 µM [4]: 101%
viability at 10 µM [4]: 77.8%
viability at 1 µM [5]: 109%
viability at 10 µM [5]: 87.4%
viability at 1 µM [6]: 101%
viability at 10 µM [6]: 90.2%
viability at 1 µM [7]: 101%
viability at 10 µM [7]: 98%
viability at 1 µM [8]: 105%
viability at 10 µM [8]: 102%
viability at 1 µM [9]: 103%
viability at 10 µM [9]: 95.4%

C[C@]1(O)C[C@@H](c2nc(-c3ccc4ccc(-c5ccccc5)nc4c3)c3c(N)nccn32)C1 [Linsitinib (OSI-906)]
viability at 1 µM [1]: 77.2%
viability at 10 µM [1]: 44.6%
viability at 1 µM [2]: 66.7%
viability at 10 µM [2]: 6.7%
viability at 1 µM [3]: 81.6%
viability at 10 µM [3]: 25.5%
viability at 1 µM [4]: 75.2%
viability at 10 µM [4]: 32.6%
viability at 1 µM [5]: 83.6%
viability at 10 µM [5]: 54.2%
viability at 1 µM [6]: 84.1%
viability at 10 µM [6]: 42.3%
viability at 1 µM [7]: 107%
viability at 10 µM [7]: 67.7%
viability at 1 µM [8]: 70.7%
viability at 10 µM [8]: 45.5%
viability at 1 µM [9]: 67.1%
viability at 10 µM [9]: 34.4%

Nc1cc(C(F)(F)F)c(-c2cc(N3CCOCC3)nc(N3CCOCC3)n2)cn1 [BKM120 (Buparlisib)]
Cell viability in kinase inhibitor library screening, A375 XP, 1μΜ ([1]; A375 XP, 1μΜ, 72 h): 70.4
Cell viability in kinase inhibitor library screening, A375 XP, 10μΜ ([1]; A375 XP, 10μΜ, 72 h): 10.0
Cell viability in kinase inhibitor library screening, IGR37 XP, 10μΜ ([2]; IGR37 XP, 10μΜ, 72 h): 7.4%
Cell viability in kinase inhibitor library screening, IGR37 XP, 1μΜ ([2]; IGR37 XP, 1μΜ, 72 h, in %): 78.7
Cell viability in kinase inhibitor library screening, IGR37 GP, 10μΜ ([3]; IGR37 GP, 10μΜ, 72 h): 20.9%
Cell viability in kinase inhibitor library screening, IGR37 GP, 1μΜ ([3]; IGR37 GP, 1μΜ, 72 h, in %): 82.3
Cell viability in kinase inhibitor library screening, 501Mel XP, 1μΜ ([4]; 501Mel XP, 1μΜ, in %): 54.8
Cell viability in kinase inhibitor library screening, 501Mel XP, 10μΜ ([4]; 501Mel XP, 10μΜ, in %): 3.6
Cell viability in kinase inhibitor library screening, 501Mel GP, 1μΜ ([5]; 501Mel GP, 1μΜ, in %): 60.8
Cell viability in kinase inhibitor library screening, 501Mel GP, 10μΜ ([5]; 501Mel GP, 10μΜ, in %): 9.6
Cell viability in kinase inhibitor library screening, A375 Parental, 10μΜ ([6]; A375 Parental, 10μΜ, 72 h): 9.8
Cell viability in kinase inhibitor library screening, A375 Parental, 1μΜ ([6]; A375 Parental, 1μΜ, 72 h): 67.0
Cell viability in kinase inhibitor library screening, IGR37 Parental, 1μΜ [7, 10]: 91.7
Cell viability in kinase inhibitor library screening, IGR37 Parental, 10μΜ [7, 11]: 30.3
Cell viability in kinase inhibitor library screening, 501Mel Parental, 1μΜ ([8]; 501Mel Parental, 1μΜ, in %): 71.1
Cell viability in kinase inhibitor library screening, 501Mel Parental, 10μΜ ([8]; 501Mel Parental, 10μΜ, in %): 10.8
Cell viability in kinase inhibitor library screening, A375 GP, 1μΜ ([9]; A375 GP, 1μΜ, 72 h): 59.6
Cell viability in kinase inhibitor library screening, A375 GP, 10μΜ ([9]; A375 GP, 10μΜ, 72 h): 7.7

CN(c1ncccc1CNc1nc(Nc2ccc3c(c2)CC(=O)N3)ncc1C(F)(F)F)S(C)(=O)=O [PF-00562271]
cell viability, A375 XP, 1μΜ ([1]; A375 XP, 1μΜ, 72 h): 107.5
cell viability, A375 XP, 10μΜ ([1]; A375 XP, 10μΜ, 72 h): 3.4
cell viability, IGR37 XP, 10μΜ ([2]; IGR37 XP, 10μΜ, 72 h): 1.9%
cell viability, IGR37 XP, 1μΜ ([2]; IGR37 XP, 1μΜ, 72 h, in %): 82.7
cell viability, IGR37 GP, 10μΜ ([3]; IGR37 GP, 10μΜ, 72 h): 2.9%
cell viability, 501Mel XP, 1μΜ ([4]; 501Mel XP, 1μΜ, in %): 94.1
cell viability, 501Mel XP, 10μΜ ([4]; 501Mel XP, 10μΜ, in %): 0.458
cell viability, 501Mel GP, 1μΜ ([5]; 501Mel GP, 1μΜ, in %): 98.0
cell viability, 501Mel GP, 10μΜ ([5]; 501Mel GP, 10μΜ, in %): 0.9
cell viability, A375 Parental, 1μΜ ([6]; A375 Parental, 1μΜ, 72 h): 104.9
cell viability, A375 Parental, 10μΜ ([6]; A375 Parental, 10μΜ, 72 h): 4.0
cell viability, IGR37 Parental, 1μΜ [7, 10]: 103.3
cell viability, IGR37 Parental, 10μΜ [7, 11]: 3.6
cell viability, 501Mel Parental, 10μΜ ([8]; 501Mel Parental, 10μΜ, in %): 1.5
cell viability, A375 GP, 1μΜ ([9]; A375 GP, 1μΜ, 72 h): 92.2
cell viability, A375 GP, 10μΜ ([9]; A375 GP, 10μΜ, 72 h): 4.9

Cn1cc(-c2ccc3nnc(C(F)(F)c4ccc5ncccc5c4)n3n2)cn1 [JNJ-38877605]
cell viability (kinase inhibitor library screening) ([1]; A375 XP, 1μΜ, 72 h): 105.2%
cell viability (kinase inhibitor library screening) ([1]; A375 XP, 10μΜ, 72 h): 100.0%
cell viability (kinase inhibitor library screening) ([2]; IGR37 XP, 1μΜ, 72 h): 96.1%
cell viability (kinase inhibitor library screening) ([2]; IGR37 XP, 10μΜ, 72 h): 62.2%
cell viability (kinase inhibitor library screening) ([3]; IGR37 GP, 1μΜ, 72 h): 102.6%
cell viability (kinase inhibitor library screening) ([3]; IGR37 GP, 10μΜ, 72 h): 87.5%
cell viability (kinase inhibitor library screening) ([4]; 501Mel XP, 1μΜ): 70.9%
cell viability (kinase inhibitor library screening) ([4]; 501Mel XP, 10μΜ): 57.1%
cell viability (kinase inhibitor library screening) ([5]; 501Mel GP, 1μΜ): 86.8%
cell viability (kinase inhibitor library screening) ([5]; 501Mel GP, 10μΜ): 64.7%
cell viability (kinase inhibitor library screening) ([6]; A375 Parental, 10μΜ, 72 h): 97.6%
cell viability (kinase inhibitor library screening) ([6]; A375 Parental, 1μΜ, 72 h): 99.7%
cell viability (kinase inhibitor library screening) ([7]; IGR37 Parental, 1μΜ, 72 h): 106.0%
cell viability (kinase inhibitor library screening) ([7]; IGR37 Parental, 10μΜ, 72 h): 87.1%
cell viability (kinase inhibitor library screening) ([8]; 501Mel Parental, 1μΜ): 97.8%
cell viability (kinase inhibitor library screening) ([8]; 501Mel Parental, 10μΜ): 86.4%
cell viability (kinase inhibitor library screening) ([9]; A375 GP, 10μΜ, 72 h): 97.0%

Cn1cc(C2=C(c3ccc(Cl)cc3Cl)C(=O)NC2=O)c2ccccc21 [SB 216763]
viability at 1 µM [1]: 109%
viability at 10 µM [1]: 79.9%
viability at 1 µM [2]: 111%
viability at 10 µM [2]: 65.4%
viability at 1 µM [3]: 105%
viability at 10 µM [3]: 88.4%
viability at 1 µM [4]: 96.9%
viability at 10 µM [4]: 73.3%
viability at 1 µM [5]: 106%
viability at 10 µM [5]: 74.1%
viability at 1 µM [6]: 111%
viability at 10 µM [6]: 68.1%
viability at 1 µM [7]: 116%
viability at 10 µM [7]: 99%
viability at 1 µM [8]: 101%
viability at 10 µM [8]: 82.6%
viability at 1 µM [9]: 104%
viability at 10 µM [9]: 67%

CC(C)(C)c1cc(C=C(C#N)C#N)cc(Br)c1O [AG-1024]
cell viability, A375 XP, 1μΜ ([1]; A375 XP, 1μΜ, 72 h): 106.8
cell viability, A375 XP, 10μΜ ([1]; A375 XP, 10μΜ, 72 h): 89.1
cell viability, IGR37 XP, 10μΜ ([2]; IGR37 XP, 10μΜ, 72 h): 46%
cell viability, IGR37 XP, 1μΜ ([2]; IGR37 XP, 1μΜ, 72 h, in %): 95.7
cell viability, IGR37 GP, 10μΜ ([3]; IGR37 GP, 10μΜ, 72 h): 76.8%
cell viability, IGR37 GP, 1μΜ ([3]; IGR37 GP, 1μΜ, 72 h, in %): 96.1
cell viability, 501Mel XP, 1μΜ ([4]; 501Mel XP, 1μΜ, in %): 99.5
cell viability, 501Mel XP, 10μΜ ([4]; 501Mel XP, 10μΜ, in %): 85.0
cell viability, 501Mel GP, 1μΜ ([5]; 501Mel GP, 1μΜ, in %): 109.0
cell viability, 501Mel GP, 10μΜ ([5]; 501Mel GP, 10μΜ, in %): 85.4
cell viability, A375 Parental, 1μΜ ([6]; A375 Parental, 1μΜ, 72 h): 99.7
cell viability, A375 Parental, 10μΜ ([6]; A375 Parental, 10μΜ, 72 h): 86.3
cell viability, IGR37 Parental, 10μΜ [7, 11]: 96.2
cell viability, 501Mel Parental, 1μΜ ([8]; 501Mel Parental, 1μΜ, in %): 98.8
cell viability, 501Mel Parental, 10μΜ ([8]; 501Mel Parental, 10μΜ, in %): 98.3
cell viability, A375 GP, 1μΜ ([9]; A375 GP, 1μΜ, 72 h): 98.0
cell viability, A375 GP, 10μΜ ([9]; A375 GP, 10μΜ, 72 h): 86.9
